Source: ChEMBL document CHEMBL4017462, “Antiplasmodial β-triketones from the flowers of the Australian tree Angophora woodsiana” (Bioorg Med Chem Lett, 2017)

How the values were obtained:
Plasmodium falciparum [1] = assay: Antiplasmodial activity against chloroquine-sensitive Plasmodium falciparum 3D7 measured after 72 hrs by DAPI staining based high throughput screening assay; assay type: functional; settings: 3D7, 72 h
Plasmodium falciparum [2] = assay: Antiplasmodial activity against chloroquine-resistant Plasmodium falciparum Dd2 measured after 72 hrs by DAPI staining based high throughput screening assay; assay type: functional; settings: Dd2, 72 h
HEK293 = assay: Growth inhibition of HEK293 cells; assay type: cell-based; settings: Homo sapiens
[3] = Selectivity index, ratio of IC50 for HEK293 cells to IC50 for chloroquine-resistant Plasmodium falciparum Dd2; assay type: toxicity; settings: human; read-out: Ratio IC50
Plasmodium falciparum [4] = assay: Antiplasmodial activity against chloroquine-sensitive Plasmodium falciparum 3D7; assay type: functional
Plasmodium falciparum [5] = assay: Antiplasmodial activity against chloroquine-resistant Plasmodium falciparum Dd2; assay type: functional
[6] = Growth inhibition of HEK293 cells at 120 uM relative to control; assay type: cell-based; settings: human, read-out: GI
[7] = Growth inhibition of HEK293 cells at 100 uM relative to control; assay type: cell-based; settings: human, read-out: GI
[8] = Growth inhibition of HEK293 cells at 20 uM relative to control; assay type: cell-based; settings: human, read-out: GI
[9] = Growth inhibition of HEK293 cells at 40 uM relative to control; assay type: cell-based; settings: human, read-out: GI
Plasmodium falciparum [10] = assay: Antiplasmodial activity against chloroquine-resistant Plasmodium falciparum Dd2 at 40 uM measured after 72 hrs by DAPI staining based high throughput screening assay relative to control; assay type: functional

Which IC50 (Plasmodium falciparum [1]) does the source give for `CC(C)C[C@H]1C[C@@]2(CC[C@H]3C[C@@H]2C3(C)C)OC2=C1C(=O)C(C)(C)C(=O)C2(C)C` here?
The IC50 was 6700 nM.

For `CC(C)C[C@@H]1OC12C(=O)C(C)(C)C(=O)C(C)(C)C2=O`, which IC50 (Plasmodium falciparum [1]) is on record?
The IC50 was 3000 nM.

And the IC50 (Plasmodium falciparum [2])?
The IC50 was 2530 nM.

And the IC50 (HEK293)?
The IC50 was 15900 nM.

And the selectivity ratio [3]?
The selectivity ratio was under 10.

With `C=C1CC[C@H]2[C@H](CC(C)C)C3=C(O[C@]2(C)CC[C@@H]2[C@@H]1CC2(C)C)C(C)(C)C(=O)C(C)(C)C3=O` as the molecule, how does the IC50 (Plasmodium falciparum [1]) read?
The IC50 was 11300 nM.

Which results are given for `CC(C)CC(=O)c1c(O)c2c(c3c1O[C@]1(C(C)C)OC4=C(C(=O)C(C)(C)C(=O)C4(C)C)[C@H]31)OC1=C(C(=O)C(C)(C)C(=O)C1(C)C)[C@@H]2CC(C)C`?
IC50 (Plasmodium falciparum [4]): 1000 nM; IC50 (Plasmodium falciparum [5]): 1490 nM

For `Cc1c2c(c(O)c3c1OC1=C(C(=O)C(C)(C)C(=O)C1(C)C)[C@@H]3CC(C)C)C(=O)C[C@@H](c1ccccc1)O2`, which IC50 (Plasmodium falciparum [1]) is on record?
Its IC50 is 10700 nM.

Which IC50 (Plasmodium falciparum [1]) does the source give for `CC(C)[C@]12OC3=C(C(=O)C(C)(C)C(=O)C3(C)C)[C@H]1C1=C(O2)C(C)(C)C(=O)C(C)(C)C1=O` here?
The IC50 was 14000 nM.

With `Cc1c(O)c(C(=O)CCc2ccccc2)c2c(c1O)[C@@H]1C3=C(O[C@]1(C(C)C)O2)C(C)(C)C(=O)C(C)(C)C3=O` as the molecule, how does the IC50 (Plasmodium falciparum [1]) read?
The IC50 was 1070 nM.

And the IC50 (Plasmodium falciparum [4])?
Its IC50 is 290 nM.

And the IC50 (Plasmodium falciparum [5])?
The IC50 was 440 nM.

What about the inhibition at 120 µM [6] of the same molecule?
Its inhibition at 120 µM is 85%.

For `C=C1CC[C@H]2[C@@H](CC(C)C)C3=C(O[C@]2(C)CC[C@@H]2[C@@H]1CC2(C)C)C(C)(C)C(=O)C(C)(C)C3=O`, which IC50 (Plasmodium falciparum [1]) is on record?
The IC50 was 8900 nM.

Which IC50 (Plasmodium falciparum [1]) does the source give for `CC(C)C[C@H]1C2=C(O[C@@]3(C)C=C4[C@@H](C[C@@H]13)[C@@H](C)CC[C@@H]4C(C)C)C(C)(C)C(=O)C(C)(C)C2=O` here?
Its IC50 is 26900 nM.

And the inhibition at 100 µM [7]?
Its inhibition at 100 µM is 68%.

Which IC50 (Plasmodium falciparum [1]) does the source give for `CC(C)CC(=O)c1c(O)cc(O)c2c1O[C@@]1(C(C)C)OC3=C(C(=O)C(C)(C)C(=O)C3(C)C)[C@@H]21` here?
The IC50 was 10500 nM.

What about the inhibition at 100 µM [7] of the same molecule?
Its inhibition at 100 µM is 59%.

For `CC(C)CC(C1=C(O)C(C)(C)C(=O)C(C)(C)C1=O)C1=C(O)C(C)(C)C(=O)C(C)(C)C1=O`, which IC50 (Plasmodium falciparum [1]) is on record?
Its IC50 is 440 nM.

And the IC50 (Plasmodium falciparum [4])?
Its IC50 is 5300 nM.

What about the IC50 (Plasmodium falciparum [5]) of the same molecule?
Its IC50 is 8800 nM.

What about the inhibition at 120 µM [6] of the same molecule?
The inhibition at 120 µM was 42%.

Which results are given for `CC(C)CC(=O)c1c(O)cc2c(c1O)[C@@H](CC(C)C)C1=C(O2)C(C)(C)C(=O)C(C)(C)C1=O`?
IC50 (Plasmodium falciparum [1]): 1800 nM; IC50 (Plasmodium falciparum [2]): 4000 nM; IC50 (HEK293): 11400 nM; selectivity ratio [3]: < 10

For `C[C@H]1[C@H](OC(=O)CCC(=O)O)O[C@@H]2O[C@@]3(C)CC[C@H]4[C@H](C)CC[C@@H]1[C@@]24OO3` [ARTESUNATE], which IC50 (Plasmodium falciparum [1]) is on record?
Its IC50 is 1 nM.

What about the inhibition at 20 µM [8] of the same molecule?
The inhibition at 20 µM was 94%.

Which IC50 (Plasmodium falciparum [2]) does the source give for `COc1ccc(C[C@H](N)C(=O)N[C@H]2[C@@H](O)[C@H](n3cnc4c(N(C)C)ncnc43)O[C@@H]2CO)cc1` [PUROMYCIN] here?
The IC50 was 61 nM.

And the IC50 (HEK293)?
Its IC50 is 399 nM.

For `CCc1nc(N)nc(N)c1-c1ccc(Cl)cc1` [PYRIMETHAMINE], which IC50 (Plasmodium falciparum [1]) is on record?
The IC50 was 8 nM.

What about the inhibition at 40 µM [9] of the same molecule?
Its inhibition at 40 µM is 62%.

And the Activity (Plasmodium falciparum [10])?
Its Activity is 62%.

For `COc1ccc2nc3cc(Cl)ccc3c(Nc3cc(CN4CCCC4)c(O)c(CN4CCCC4)c3)c2n1` [PYRONARIDINE], which IC50 (Plasmodium falciparum [1]) is on record?
Its IC50 is 11.9 nM.

What about the IC50 (Plasmodium falciparum [2]) of the same molecule?
Its IC50 is 18 nM.

And the IC50 (HEK293)?
Its IC50 is 5220 nM.
